Results as given in patent US20030190671A1, “Use of metabolic phenotyping in individualized treatment with amonafide” (McGill University, priority 2001, published 2003).
Where two headings read alike, the source gives them in different places.

Assays:
[1] = system: L1210 leukemia cells lines; conditions: cited from earlier work
[2] = system: p388 leukemia cells lines; conditions: cited from earlier work
NAT2 = conditions: cancer individuals phenotyped with caffeine; cited from earlier work
[3] = cited from earlier work
B16 melanoma = conditions: cited from earlier work
[4] = dogs; single-bolus and daily for 5 days schedules, highest doses administered; cited from earlier work
[5] = mice, dogs, and rats; cited from earlier work
[6] = human; cited from earlier work
[7] = system: non-small cell lung cancer, prostate cancer and breast cancer; conditions: cited from earlier work
CYP1A2 = target: T1, CYP1A2 (Homo sapiens, UniProt P05177); conditions: in vitro; cited from earlier work
T1 sequence (P05177 1-516): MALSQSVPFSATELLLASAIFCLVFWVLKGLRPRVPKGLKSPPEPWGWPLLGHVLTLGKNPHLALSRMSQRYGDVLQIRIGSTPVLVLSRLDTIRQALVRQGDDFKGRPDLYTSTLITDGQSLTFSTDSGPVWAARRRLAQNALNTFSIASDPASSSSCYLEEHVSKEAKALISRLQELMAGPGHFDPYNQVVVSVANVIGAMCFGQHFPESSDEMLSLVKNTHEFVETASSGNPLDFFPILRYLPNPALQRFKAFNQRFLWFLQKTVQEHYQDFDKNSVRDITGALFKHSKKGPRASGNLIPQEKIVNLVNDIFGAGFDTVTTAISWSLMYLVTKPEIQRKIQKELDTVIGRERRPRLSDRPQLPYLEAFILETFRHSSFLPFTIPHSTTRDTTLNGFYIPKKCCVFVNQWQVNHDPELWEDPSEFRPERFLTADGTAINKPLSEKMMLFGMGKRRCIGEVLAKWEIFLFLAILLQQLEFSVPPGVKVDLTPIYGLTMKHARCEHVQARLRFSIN

[8] = Stability of reconstituted amonafide solution; type: physicochemical
Method: Intact vials should be stored under refrigeration (2-8° C.). […] However, the reconstituted solution contains no antibacterial preservatives and should be used immediately. It is advised that the reconstituted product be discarded 8 hours after initial entry.
Add the appropriate dose of amonafide to a bag of 100 mL of normal saline prior to administration. Amonafide is very unstable in dextrose-containing solutions and these should not be used for reconstitution or for administration.

M5076 sarcoma cell line = conditions: cited from earlier work
[9] = Felder et al.; cited from earlier work
[10] = cited from earlier work; remark: listed apart in the source
1,7-DMX-Ab = assay: Competitive antigen ELISA, antibody specificity of 1,7-DMX-Ab; type: binding, rabbit; conditions: hypothesized ideal antibody specificity; 0 = no inhibition or no higher than 40% at 5×10^−3 M
Method: (§1) Competitive Antigen ELISA
(§2) BSA, antibodies, Tween™ 20 and horse radish peroxidase are added to buffers and water just prior to use. Urine samples are usually collected four hours after drinking a cup of coffee (instant or brewed with approximately 100 mg of caffeine per cup) and stored at −20° C. as 1-mL aliquots in 1.5-mL microtubes. For the ELISA, the urine samples are diluted with isotonic sodium phosphate buffer, pH 7.5 (310 mosM) to give concentrations of caffeine, 1.7-DMX and 1,7-DMU no higher than 3×10^−6 M in the microtiter plate wells. Wells of the ELISA plate are washed with a Nunc-Immuno wash 12 washer. Sixteen milliliters of a solution of 6.6 μg ml^−1 of isolated IgG antibodies is prepared in a 100 mM sodium carbonate buffer, pH 9.6, and 150 μL of this solution is pipetted in each well of a microtiter plate using a eight channel pipet (Brinkmann Transferpette™-8 50-200 μL) and 200 μL Flex tips from Brinkmann). After coating the wells with antibodies at 4° C. for 20 hours, the wells are washed 3 times with the isotonic sodium phosphate buffer containing 0.05% Tween™ 20 (IPBT) and properly drained by inverting the plate and absorbing the liquid on to a piece of paper towel. Thirty milliliters of a solution of a IPBT solution containing 1% BSA is prepared and 150 μL of this solution is pipetted in each well using a eight channel pipet (Brinkmann Transferpet-te™-8 50-200 μL) and 200 μL yellow tips (Sarstedt yellow tips for P200 Gilson Pipetman). After 3 hours at room temperature, the wells are washed 3 times with IPBT solution and drained. Samples of 400 μL for determination of caffeine, 1,7-DMX and 1,7-DMU are prepared in 1.5-mL microtubes using Sarstedt yellow tips and a P200 Gilson Pipetman. Then, 200 μL of each sample are pipetted in duplicate in a Falcon 96-well microtest tissue culture plate according to the pattern shown in FIG. 23, using Sarstedt yellow tips and a P200 Gilson Pipetman. Using an eight channel pipet (Brinkmann Transferpette™-8 50-200 μL) and changing the tips of the eight channel pipet (200 μL Flex tips from Brinkmann) at each row, 150 μL of samples are transferred in the corresponding wells of a 96-well ELISA microtiter plate coated with antibodies. After the addition of the samples, the microtiter plates are covered and left standing at room temperature for 2 h. While the plate is left standing the substrate buffer without the hydrogen peroxide and o-phenylenediamine hydrochloride is prepared (25 mM citric acid and 50 mM sodium phosphate dibasic buffer, pH 5.0). The microtiter plate is washed 3 times with the IPBT solution and 3 times with a 0.05% Tween 20 solution and drained. Then, 50 […] of hydrogen peroxide and 40 mg of o-phenylenediamine are added to the substrate buffer. One hundred fifty microliters (150 μL) of the substrate buffer solution is then added to each well using a eight channel pipet (Brinkmann Transferpette™-8 50-200 μL) and 200 μL Flex tips (Brinkmann). The microtiter plate is covered and shaken for 25-30 min at room temperature and the enzymatic reaction is stopped by adding 50 μL/well of a 2.5 N HCl solution using an eight channel pipet (Brinkmann Transferpette™-8 50-200 μL) and 200 μL Flex tips (Brinkmann).

AAMU-Ab = assay: Competitive antigen ELISA, cross-reactivity of AAMU-Ab; type: binding, rabbit; conditions: competitive antigen ELISA; 0 = absence of inhibition or inhibition no higher than 40% at the highest concentration tested (5×10^−3 M)
Method: as §1
(§3) Buffers and water without additives are filtered through millipore filters and kept for 1 week. BSA, antibodies, Tween™ 20 and horse radish peroxidase conjugates are added to these buffers and water just prior to use. Urine samples are usually collected 4 hours after drinking a cup of coffee (instant or brewed with approximately 100 mg of caffeine per cup) and stored at −80° C. The urine samples are diluted 10 times with sodium phosphate buffer (620 mosm, pH 7.50) and are subsequently diluted with water to give concentrations of AAMU and 1X no higher than 3×10^−6 M in the ELISA. All the pipettings are done with an eight-channel pipette, except those of the antibody and sample solutions. Starting with the last well, 100 μL of a carbonate buffer (100 mM, pH 9.6) containing 2.5 μg mL-1 antibodies are added to each well. After 90 min. at room temperature, the wells are washed three times with 100 mL of TPB: isotonic sodium phosphate buffer (310 mosm, pH 7.50) containing 0.05% Tween™ 20.
(§4) After the initial wash, unoccupied sites are blocked by incubation for 90 min. at room temperature with 100 μL TBP containing 3% BSA. The wells are washed four times with 100 […] TPB. […] The microplate is gently shaken with an orbital shaker at room temperature for 3-4 hours. The wells are washed three times with 100 μL TPB containing 1% BSA and three times with water containing 0.05% Tween™ 20. To the washed plate is added 150 μL of a substrate buffer composed of citric acid (25 mM) and sodium phosphate dibasic buffer (50 mM, pH 5.0) containing 0.06% hydrogen peroxide and 0.04% o-phenylenediamine hydrochloride.
as §3, with “were” for “are”, “They were” for “The urine samples are”, “mL^−1” for “mL-1”, “was pipetted.” for “are added to each well.”, “μL” for “mL”
(§5) After the initial wash, unoccupied sites were blocked by incubation for 90 min. at room temperature with 100 μL TBP containing 3% BSA. The wells were washed four times with 100 μL TPB. […] The microplate was gently shaken with an orbital shaker at room temperature for 3-4 hours. The wells were washed three times with 100 μL with TPB containing 1% BSA and three times with water containing 0.05% Tween™ 20. To the washed plate was added 150 μL of a substrate buffer composed of citric acid (25 mM) and sodium phosphate dibasic buffer (50 mM, pH 5.0) containing 0.06% hydrogen peroxide and 0.04% o-phenylenediamine hydrochloride. After 20 min. at room temperature with shaking, the reaction was stopped with 50 μL of 2.5 N HCl.
(§6) The cross reactivities of AAMU-Ab and 1X-Ab were tested using a wide variety of caffeine metabolites and structural analogs (Table 2 below).

1X-Ab = assay: Competitive antigen ELISA, cross-reactivity of 1X-Ab; type: binding, rabbit; conditions: competitive antigen ELISA; 0 = absence of inhibition or inhibition no higher than 40% at the highest concentration tested (5×10^−3 M)
Method: as §1, §3, §4
as §3, with “were” for “are”, “They were” for “The urine samples are”, “mL^−1” for “mL-1”, “was pipetted.” for “are added to each well.”, “μL” for “mL”
as §5, §6

1,7-DMU-Ab = assay: Competitive antigen ELISA, antibody specificity of 1,7-DMU-Ab; type: binding, rabbit; conditions: hypothesized ideal antibody specificity; 0 = no inhibition or no higher than 40% at 5×10^−3 M
Method: as §1, §2

Caffeine-Ab = assay: Competitive antigen ELISA, antibody specificity of caffeine-Ab; type: binding, rabbit; conditions: hypothesized ideal antibody specificity; 0 = no inhibition or no higher than 40% at 5×10^−3 M
Method: as §1, §2

CYP2D6 = conditions: cited from earlier work

## CN(C)CCN1C(=O)c2cccc3cc(N)cc(c23)C1=O [amonafide]
[1]
  activity against L1210 leukemia: significant activity
[2]
  activity against p388 leukemia: significant activity
NAT2
  area under the plasma concentration-time curve, fast vs. slow acetylators: significantly greater in fast acetylators
  toxicity (myelosuppression), fast vs. slow acetylators: fast acetylators had greater toxicity than slow acetylators
[3]; bolus dose, OSU study (Leiby et al.)
  maximum tolerated dose (MTD): 1125 mg/m^2
[3]; daily times five every 21 days, MDA (Legha et al.)
  maximum tolerated dose (MTD): 400 mg/m^2
[3]; daily times five every 21 days, OSU (Leiby et al.)
  maximum tolerated dose (MTD): 250 mg/m^2
[3]; single bolus and daily times five schedules
  dose-limiting toxicity: myelosuppression
[3]; single bolus, UTSA (Saez et al.)
  maximum tolerated dose (MTD): 800 mg/m^2
B16 melanoma
  activity against B16 melanoma: significant activity
[4]
  neurotoxicity: signs indicative of neurotoxicity
[5]
  preclinical toxicity: reversible hematopoietic, gastrointestinal, renal and hepatic toxicity
[6]
  binding to body tissues: highly bound to body tissues
  volume of distribution: large
[7]; human, in vivo
  antitumor activity in non-small cell lung cancer, prostate cancer and breast cancer: antitumor activity
  most common dose-limiting side effect: granulocytopenia
[7]; previous clinical studies
  neutropenia, day of nadir counts: 12 to 15 days
  neutropenia, day of recovery: ~21 days
CYP1A2
  substrate of CYP1A2: substrate for CYP1A2
[8]
  stability in dextrose-containing solutions: very unstable
[8]; reconstituted in normal saline, over 14 days at room temperature or under refrigeration
  decomposition of reconstituted solution: no decomposition
M5076 sarcoma cell line
  activity against M5076 sarcoma: significant activity

## CC(=O)Nc1cc2c3c(cccc3c1)C(=O)N(CCN(C)C)C2=O [N-acetyl-amonafide]
[9]
  potency relative to the parent drug amonafide: approximately equipotent to the parent drug
CYP1A2
  effect on amonafide oxidation (CYP1A2): inhibition of amonafide oxidation

## C[N+](C)([O-])CCN1C(=O)c2cccc3cc(N)cc(c23)C1=O [N-oxide-amonafide]
[9]
  potency relative to the parent drug amonafide: essentially inactive

## Nc1ccc(S(=O)(=O)c2ccc(N)cc2)cc1 [dapsone]
[10]; fast acetylators
  adverse reactions: 17%
[10]; slow acetylators
  adverse reactions: 46%

## CC(=O)Nc1c(N)[nH]c(=O)[nH]c1=O [5-Acetamino-6-amino-uracil]
1,7-DMX-Ab
  % Cross-reaction 1,7-DMX-Ab: 0%
AAMU-Ab
  % Cross-Reaction AAMU-Ab: 0.6%
1X-Ab
  % Cross-Reaction 1X-Ab: 0%
1,7-DMU-Ab
  % Cross-reaction 1,7-DMU-Ab: 0%
Caffeine-Ab
  % Cross-reaction Caffeine-Ab: 0%

## COc1ccc2c(c1)[C@]13CCCC[C@@H]1[C@H](C2)N(C)CC3 [Dextromethorphan]
CYP2D6; extensive metabolizers (EMs), p<0.05 vs PMs
  mean performance +/−SE: 95+/−0.5%
CYP2D6; poor metabolizers (PMs), p<0.05 vs EMs
  mean performance +/−SE: 86+/−6%

## O=c1[nH]cnc2nc[nH]c12 [Hypoxanthine]
1,7-DMX-Ab
  % Cross-reaction 1,7-DMX-Ab: 0%
AAMU-Ab
  % Cross-Reaction AAMU-Ab: 0%
1X-Ab
  % Cross-Reaction 1X-Ab: 0%
1,7-DMU-Ab
  % Cross-reaction 1,7-DMU-Ab: 0%
Caffeine-Ab
  % Cross-reaction Caffeine-Ab: 0%
